Data on 25 compounds can be found in patent US8124766B2, “Inhibitors of diacylglycerol acyltransferase” (Madrigal Pharmaceuticals, Inc., priority 2008, dated 2012).

This assay concerns DGAT. As to the kind of experiment: DGAT Phospholipid FlashPlate Assay. The class given is biochemical. The conditions noted are these: DGAT pellet, DAG-coated PL-FlashPlate, 14C-Pal-CoA, 37° C. for 1 hour; read-out: DGAT Inhibition Activity IC50. How it is done:
DGAT Phospholipid FlashPlate Assay
Materials for the assay were: PL-FlashPlate: Phospholipid FlashPlates from PerkinElmer, catalog number SMP108; DAG (1,2-Dioleoyl-sn-glycerol) 10 mM suspended in water containing 0.1% Triton X-100; ^14C-Pal-CoA (palmitoyl coenzyme A, [palmitoyl-1-^14C]) from PerkinElmer, catalog number NEC-555 with a specific activity of 55 mCi/mmol; and DGAT pellet, with a protein concentration of 9.85 mg/ml.
Aqueous buffers were prepared or purchased as follows: The coating buffer (CB) was purchased from PerkinElmer, catalog number SMP900A; the reaction buffer (RB) was 50 mM Tris-HCl, pH 7.5, 100 mM NaCl, 0.01% BSA in water; the washing buffer (WB) is 50 mM Tris-HCl, pH 7.5, 100 mM NaCl, 0.05% deoxycholic acid sodium salt in water; the dilution buffer (DB) was 50 mM Tris-HCl, pH 7.5, 100 mM NaCl, 1 mM EDTA, 0.2% Triton X-100 in water.
1,2-Dioleoyl-sn-glycerol (DAG, 10 mmoles) was diluted to 500 μM with coating buffer (CB). The diluted DAG solution was then added to 384-well PL-FlashPlates at 60 μl per well, and incubated at room temperature for 2 days. The coated plates were then washed twice with washing buffer (WB) before use. Test compounds were serial diluted to 2000, 666.7, 222.2, 74.1, 24.7, 8.2, 2.7 and 0.9 μM in 100% DMSO. Diluted compound were further diluted 10 fold with reaction buffer (RB). ^14C-Pal-CoA was diluted to 8.3 μM with RB. The DGAT pellet was diluted to 0.13 mg protein/ml with dilution buffer (DB) immediately before it was added to the PL-FlashPlates to start the reaction. 20 μl of the RB-diluted compounds (or 10% DMSO in RB for Total and Blank), 15 μl of RB diluted 14C-Pal-CoA and 15 μl of DB diluted DGAT pellet (DB without DGAT for Blanks) were transferred to each well of the PL-FlashPlates. The reaction mixtures were incubated at 37° C. for 1 hour. The reactions were stopped by washing 3 times with WB. Plates were sealed with Top-seal and read on a Topcount instrument.
Calculation of IC50: The IC50 values for each compound were generated using an Excel template. The Topcount rpm readings of Total and Blank were used as 0% and 100% inhibition. The percent inhibition values of reactions in the presence of compounds were calculated, and plotted against compound concentrations. All data were fitted into a Dose Response One Site model (4 parameter logistic model) as the following: (A+((B−A)/(1+((x/C)^D)))), with A and B as the bottom and top of the curve (highest and lowest inhibition), respectively, and C as IC50 and D as Hill Coefficient of the compound.
With `CC(C)(C)OC(=O)N1CCN(c2ccc(NC(=O)c3cc4c(Cl)cccc4s3)cn2)CC1` [Example 1, 4-{5-[(4-Chloro-benzo[b]thiophene-2-carbonyl)-amino]-pyridin-2-yl}-piperazine-1-carboxylic acid tert-butyl ester], the IC50 is 0.292 µM.

For the compound `CC(C)(CC(=O)N1CCN(c2ccc(NC(=O)c3cc4c(Cl)cccc4s3)cn2)CC1)C(=O)O` [Example 2, 4-(4-{5-[(4-Chloro-benzo[b]thiophene-2-carbonyl)-amino]-pyridin-2-yl}-piperazin-1-yl)-2,2-dimethyl-4-oxo-butyric acid], the IC50 worked out at 0.032 µM.

As for `CC(C)(C)OC(=O)N1CCN(c2ccc(NC(=O)c3cc4cc(Br)ccc4s3)cn2)CC1` [Example 3, 4-{5-[(5-Bromo-benzo[b]thiophene-2-carbonyl)-amino]-pyridin-2-yl}-piperazine-1-carboxylic acid tert-butyl ester], the IC50 stood at 0.479 µM.

For the compound `CC(C)(CC(=O)N1CCN(c2ccc(NC(=O)c3cc4cc(Br)ccc4s3)cn2)CC1)C(=O)O` [Example 4, 4-(4-{5-[(5-Bromo-benzo[b]thiophene-2-carbonyl)-amino]-pyridin-2-yl}-piperazin-1-yl)-2,2-dimethyl-4-oxo-butyric acid], the IC50 worked out at 0.085 µM.

As to `CCOc1cccc2c1cc(C(=O)Nc1ccc(N3CCN(C(=O)OC(C)(C)C)CC3)nc1)n2CC` [Example 5, 4-{5-[(4-Ethoxy-1-ethyl-1H-indole-2-carbonyl)-amino]-pyridin-2-yl}-piperazine-1-carboxylic acid tert-butyl ester], the IC50 was 0.18 µM.

For the compound `CCOc1cccc2c1cc(C(=O)Nc1ccc(N3CCN(C(=O)CC(C)(C)C(=O)O)CC3)nc1)n2CC` [Example 6, 4-(4-{5-[(4-Ethoxy-1-ethyl-1H-indole-2-carbonyl)-amino]-pyridin-2-yl}-piperazin-1-yl)-2,2-dimethyl-4-oxo-butyric acid], the IC50 was 0.189 µM.

For `CCOc1cccc2c1cc(C(=O)Nc1ccc(C3CCN(C(=O)CC(C)(C)C(=O)O)CC3)cc1)n2CC` [Example 7, 4-(4-{4-[(4-Ethoxy-1-ethyl-1H-indole-2-carbonyl)-amino]-phenyl}-piperidin-1-yl)-2,2-dimethyl-4-oxo-butyric acid], the IC50 came out at 0.316 µM.

`CCn1c(C(=O)Nc2ccc(C3CCN(C(=O)CC(C)(C)C(=O)O)CC3)cc2)cc2c(C)cccc21` [Example 8, 4-(4-{4-[(1-Ethyl-4-methyl-4H-indole-2-carbonyl)-amino]-phenyl}-piperidin-1-yl)-2,2-dimethyl-4-oxo-butyric acid]: the IC50 worked out at 0.528 µM.

On to `CCn1c(C(=O)Nc2ccc(C3CCN(C(=O)CC(C)(C)C(=O)O)CC3)cc2)cc2c(Cl)c(Cl)ccc21` [Example 9, 4-(4-{4-[(4,5-Dichloro-ethyl-1H-indole-2-carbonyl)-amino]-phenyl}-piperidin-1-yl)-2,2-dimethyl-4-oxo-butyric acid], for which the IC50 was determined as 0.333 µM.

With `CCCOc1cccc2c1cc(C(=O)Nc1ccc(N3CCN(C(=O)OC(C)(C)C)CC3)nc1)n2CC` [Example 10, 4-{5-[(1-Ethyl-4-propoxy-1,1-indole-2-carbonyl)-amino]-pyridin-2-yl}-piperazine-1-carboxylic acid tert-butyl ester], the IC50 stood at 0.328 µM.

Regarding `CCCOc1cccc2c1cc(C(=O)Nc1ccc(N3CCN(C(=O)CC(C)(C)C(=O)O)CC3)nc1)n2CC` [Example 11, 4-(4-{5-[(1-Ethyl-4-propoxy-1H-indole-2-carbonyl)-amino]-pyridin-2-yl}-piperazin-1-yl)-2,2-dimethyl-4-oxo-butyric acid], the IC50 was found to be 0.105 µM.

Take `CCn1c(C(=O)Nc2ccc(N3CCN(C(=O)OC(C)(C)C)CC3)nc2)cc2c(OCC(C)C)cccc21` [Example 12, 4-{5-[(1-Ethyl-4-isobutoxy-1H-indole-2-carbonyl)-amino]-pyridin-2-yl}-piperazine-1-carboxylic acid tert-butyl ester]: the IC50 was determined as 0.273 µM.

Consider `CCn1c(C(=O)Nc2ccc(N3CCN(C(=O)CC(C)(C)C(=O)O)CC3)nc2)cc2c(OCC(C)C)cccc21` [Example 13, 4-(4-{5-[(1-Ethyl-4-isobutoxy-1H-indole-2-carbonyl)-amino]-pyridin-2-yl}-piperazin-1-yl)-2,2-dimethyl-4-oxo-butyric acid hydrochloric acid], for which the IC50 stood at 0.283 µM.

Regarding `CCn1c(C(=O)Nc2ccc(N3CCN(C(=O)OC(C)(C)C)CC3)nc2)cc2c(C(F)(F)F)cccc21` [Example 14, 4-{5-[(1-Ethyl-4-trifluoromethyl-1H-indole-2-carbonyl)-amino]-pyridin-2-yl}-piperazine-1-carboxylic acid tert-butyl ester], the IC50 was 0.433 µM.

On to `CCn1c(C(=O)Nc2ccc(N3CCN(C(=O)CC(C)(C)C(=O)O)CC3)nc2)cc2c(C(F)(F)F)cccc21` [Example 15, 4-(4-{5-[(1-Ethyl-4-trifluoromethyl-1H-indole-2-carbonyl)-amino]-pyridin-2-yl}-piperazin-1-yl)-2,2-dimethyl-4-oxo-butyric acid], for which the IC50 came to 0.183 µM.

Regarding `CCn1c(C(=O)Nc2ccc(N3CCN(C(=O)OC(C)(C)C)CC3)nc2)cc2c(OC)cc(OC)cc21` [Example 16, 4-{5-[(1-Ethyl-4,6-dimethoxy-1H-indole-2-carbonyl)-amino]-pyridin-2-yl}-piperazine-1-carboxylic acid tert-butyl ester], the IC50 turned out to be 0.248 µM.

On to `CCn1c(C(=O)Nc2ccc(N3CCN(C(=O)CC(C)(C)C(=O)O)CC3)nc2)cc2c(OC)cc(OC)cc21` [Example 17, 4-(4-{5-[(1-Ethyl-4,6-dimethoxy-1H-indole-2-carbonyl)-amino]-pyridin-2-yl}-piperazin-1-yl)-2,2-dimethyl-4-oxo-butyric acid], for which the IC50 was determined as 0.27 µM.

`CCn1c(C(=O)Nc2ccc(N3CCN(C(=O)OC(C)(C)C)CC3)nc2)cc2c(Cl)c(Cl)ccc21` [Example 18, 4-{5-[(4,5-Dichloro-1-ethyl-1H-indole-2-carbonyl)-amino]-pyridin-2-yl}-piperazine-1-carboxylic acid tert-butyl ester]: the IC50 amounted to 0.255 µM.

Consider `CCn1c(C(=O)Nc2ccc(N3CCN(C(=O)CC(C)(C)C(=O)O)CC3)nc2)cc2c(Cl)c(Cl)ccc21` [Example 19, 4-(4-{5-[(4,5-Dichloro-1-ethyl-1H-indole-2-carbonyl)-amino]-pyridin-2-yl}-piperazin-1-yl)-2,2-dimethyl-4-oxo-butyric acid], for which the IC50 worked out at 0.08 µM.

As to `CCn1c(C(=O)Nc2ccc(N3CCN(C(=O)OC(C)(C)C)CC3)nc2)cc2c(OC)cccc21` [Example 20, 4-{5-[(1-Ethyl-4-methoxy-1H-indole-2-carbonyl)-amino]-pyridin-2-yl}-piperazine-1-carboxylic acid tert-butyl ester], the IC50 worked out at 0.084 µM.

Take `CCOC(=O)N1CCN(c2ccc(NC(=O)c3cc4c(OC)cccc4n3CC)cn2)CC1` [Example 21, 4-{5-[(1-Ethyl-4-methoxy-1H-indole-2-carbonyl)-amino]-pyridin-2-yl}-piperazine-1-carboxylic acid ethyl ester]: the IC50 came out at 0.282 µM.

With `CCn1c(C(=O)Nc2ccc(N3CCN(C(=O)OC(C)(C)C)CC3)nc2)cc2c(OC)c(OC)ccc21` [Example 22, 4-{5-[(1-Ethyl-4,5-dimethoxy-1H-indole-2-carbonyl)-amino]-pyridin-2-yl}-piperazine-1-carboxylic acid tert-butyl ester], the 50% inhibitory concentration (IC50) was 0.086 µM.

In the case of `CCn1c(C(=O)Nc2ccc(N3CCN(C(=O)OC(C)(C)C)CC3)nc2)cc2cc(Cl)ccc21` [Example 23, 4-{5-[(5-Chloro-1-ethyl-1H-indole-2-carbonyl)-amino]-pyridin-2-yl}-piperazine-1-carboxylic acid tert-butyl ester], the IC50 was 0.571 µM.

Turning to `CC(C)(C)OC(=O)N1CCN(c2ccc(NC(=O)c3cc4c(Cl)cccc4s3)cc2)CC1` [Example 24, 4-{4-[(4-Chloro-benzo[b]thiophene-2-carbonyl)-amino]-phenyl}-piperazine-1-carboxylic acid tert-butyl ester], the IC50 worked out at 0.512 µM.

Take `CC(C)(CC(=O)N1CCC(c2ccc(NC(=O)c3cc4c(Cl)cccc4s3)cc2)CC1)C(=O)O` [Example 25, 4-(4-{4-[(4-Chloro-benzo[b]thiophene-2-carbonyl)-amino]-phenyl}-piperidin-1-yl)-2,2-dimethyl-4-oxo-butyric acid]: the IC50 worked out at 0.127 µM.
